Data on 22 compounds can be found in PubChem BioAssay AID256 (DTP/NCI, 2004).

Each structure is given as a SMILES string. Toxic doses and inconclusive results are not listed.

The experiment deals with CD2F1 mice, L1210 leukemia ip, survival T/C. The experiment is described as follows: NCI In Vivo Anticancer Drug Screen. Data for tumor model L1210 Leukemia (intraperitoneal) in CD2F1 (CDF1) mice. Conditions: endpoint: mean survival time, higher = longer survival. The essentials:
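Antitumor effect is scored in animals hosting a serially transplanted tumor. Values compare compound-dosed animals against vehicle-only controls as a simple quotient.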

Where [1] appears, read: dose: 100.0 mg/kg/injection, schedule: Q04DX003 (ip), vehicle: saline with Tween-80.
Where [2] appears, read: dose: 200.0 mg/kg/injection, schedule: Q04DX003 (ip), vehicle: saline with Tween-80.
[3] abbreviates: dose: 400.0 mg/kg/injection, schedule: Q04DX003 (ip), vehicle: saline with Tween-80.
[4] abbreviates: dose: 50.0 mg/kg/injection, schedule: Q01DX009 (ip), vehicle: saline with Tween-80.
[5] abbreviates: dose: 100.0 mg/kg/injection, schedule: Q01DX009 (ip), vehicle: saline with Tween-80.
Setting [6] is: dose: 200.0 mg/kg/injection, schedule: Q01DX009 (ip), vehicle: saline with Tween-80.
[7] abbreviates: dose: 100.0 mg/kg/injection, schedule: Q04DX003 (ip), vehicle: saline.
[8] abbreviates: dose: 400.0 mg/kg/injection, schedule: Q01DX009 (ip), vehicle: saline with Tween-80.
Setting [9] is: dose: 1.25 mg/kg/injection, schedule: Q01DX001 (ip), vehicle: other.
Setting [10] is: dose: 12.5 mg/kg/injection, schedule: Q01DX005 (ip), vehicle: distilled water + Tween-80.
[11] abbreviates: dose: 25.0 mg/kg/injection, schedule: Q01DX005 (ip), vehicle: distilled water + Tween-80.
Where [12] appears, read: dose: 50.0 mg/kg/injection, schedule: Q01DX005 (ip), vehicle: distilled water + Tween-80.
The mark [13] stands for this setting: dose: 100.0 mg/kg/injection, schedule: Q01DX005 (ip), vehicle: distilled water + Tween-80.
Setting [14] is: dose: 200.0 mg/kg/injection, schedule: Q01DX005 (ip), vehicle: distilled water + Tween-80.
Setting [15] is: dose: 100.0 mg/kg/injection, schedule: Q01DX001 (ip), vehicle: saline with Tween-80.
[16] abbreviates: dose: 200.0 mg/kg/injection, schedule: Q01DX001 (ip), vehicle: saline with Tween-80.
[17] abbreviates: dose: 400.0 mg/kg/injection, schedule: Q01DX001 (ip), vehicle: saline with Tween-80.

Take `Cc1cc(C)c(/C=N/NC(=O)NN)c(C)c1`: the T/C is 91 % of control under setting [1], 96 % of control under setting [2] and 88 % of control under setting [3].
As for `CCCCCCCCCCCCCCCC(=O)N1CCC(N2CCCCC2)CC1`, the T/C by setting is: under setting [4], 95 % of control; under setting [5], 97 % of control; under setting [1], 92 % of control; under setting [6], 92 % of control; under setting [2], 88 % of control.
Take `COC(=O)C1(N)CCCC1`: the T/C (dose: 25.0 mg/kg/injection, schedule: Q04DX003 (ip), vehicle: saline) was 101 % of control; the T/C (dose: 50.0 mg/kg/injection, schedule: Q04DX003 (ip), vehicle: saline) is 100 % of control; the T/C under setting [1] is 105 % of control; the T/C under setting [7] is 113 % of control; the T/C (dose: 200.0 mg/kg/injection, schedule: Q01DX009 (ip), vehicle: saline) was 121 % of control; the T/C under setting [2] was 122 % of control.
As for `CCc1c(Br)c(CC)c(CC)c(CC)c1CC`, the T/C under setting [1] is 98 % of control, the T/C under setting [2] was 98 % of control and the T/C under setting [3] was 97 % of control.
In the case of `CCCCCCCCCCCCCCCCC/C=C1\CC(=O)OC1=O`, under setting [1], the T/C is 88 % of control.
Regarding `BrC=C=C1CCCCC1`, the T/C is, setting by setting: under setting [1], 95 % of control; under setting [2], 93 % of control; under setting [3], 97 % of control.
As for `CC1C(=O)C(=O)C(CCc2ccccc2)C1=O` (stereo not given), the T/C is 97 % of control under setting [5], 102 % of control under setting [6] and 109 % of control under setting [8].
For `COc1cc(/C=N\O)nc(-c2ccccn2)c1`, the T/C is 107 % of control (dose: 100.0 mg/kg/injection, schedule: Q01DX001 (ip), vehicle: saline); 98 % of control (dose: 200.0 mg/kg/injection, schedule: Q01DX001 (ip), vehicle: saline); 97 % of control (dose: 400.0 mg/kg/injection, schedule: Q01DX001 (ip), vehicle: saline).
On to `CCCCCCCCCCCC[n+]1c(C)cc(N)c2ccccc21`, for which the T/C runs as follows: under setting [9], 103 % of control; (dose: 5.0 mg/kg/injection, schedule: Q01DX001 (ip), vehicle: other) 101 % of control.
For the compound `O=NN(CCCl)C(=O)Nc1ccc(CCO)cc1`, the T/C by setting is: (dose: 0.31 mg/kg/injection, schedule: Q01DX001 (ip), vehicle: other) 103 % of control; (dose: 0.62 mg/kg/injection, schedule: Q01DX001 (ip), vehicle: other) 97 % of control; under setting [9], 105 % of control; (dose: 2.03 mg/kg/injection, schedule: Q01DX009 (ip), vehicle: acetone) 205 % of control; (dose: 2.5 mg/kg/injection, schedule: Q01DX001 (ip), vehicle: other) 120 % of control; (dose: 3.08 mg/kg/injection, schedule: Q01DX009 (ip), vehicle: saline with Tween-80) 203 % of control. Besides, the T/C is 300 % of control (dose: 4.62 mg/kg/injection, schedule: Q01DX009 (ip), vehicle: saline with Tween-80); 277 % of control (dose: 9.75 mg/kg/injection, schedule: Q01DX001 (ip), vehicle: other); 361 % of control (dose: 19.5 mg/kg/injection, schedule: Q01DX001 (ip), vehicle: other); 98 % of control (dose: 39.0 mg/kg/injection, schedule: Q01DX001 (ip), vehicle: other); 172 % of control (dose: 100.0 mg/kg/injection, schedule: Q01DX001 (ip), vehicle: carboxymethylcellulose (CMC)); 170 % of control (dose: 200.0 mg/kg/injection, schedule: Q01DX001 (ip), vehicle: carboxymethylcellulose (CMC)). In addition, the T/C (dose: 400.0 mg/kg/injection, schedule: Q01DX001 (ip), vehicle: carboxymethylcellulose (CMC)) was 307 % of control.
As to `CC1CCC2[S][Sn]3([NH]C2C1)[NH]C1CC(C)CCC1[S]3` (stereo not given), the T/C by setting is: (dose: 100.0 mg/kg/injection, schedule: Q04DX002 (ip), vehicle: saline with Tween-80) 106 % of control; (dose: 200.0 mg/kg/injection, schedule: Q04DX002 (ip), vehicle: saline with Tween-80) 111 % of control.
Regarding `Cn1c(=O)c2c(n(C)c1=O)n1cnnc1n2C`, the T/C is 95 % of control under setting [10]; 100 % of control under setting [11]; 100 % of control under setting [12]; 100 % of control under setting [13]; 89 % of control under setting [14].
Regarding `CC(C)(CO)N=Cc1ccccc1F`, the T/C reads like this: (dose: 75.0 mg/kg/injection, schedule: Q01DX001 (ip), vehicle: other) 97 % of control; (dose: 150.0 mg/kg/injection, schedule: Q01DX001 (ip), vehicle: other) 96 % of control; (dose: 300.0 mg/kg/injection, schedule: Q01DX001 (ip), vehicle: other) 93 % of control.
In the case of `O=C(Nc1ccccc1)Oc1ccc(OCc2ccccc2)cc1`, the T/C by setting is: (dose: 12.5 mg/kg/injection, schedule: Q01DX009 (ip), vehicle: saline with Tween-80) 94 % of control; (dose: 25.0 mg/kg/injection, schedule: Q01DX009 (ip), vehicle: saline with Tween-80) 90 % of control; under setting [4], 92 % of control.
Regarding `CCOP(=O)(NCCCSC)OCC`, the T/C runs as follows: (dose: 5.0 mg/kg/injection, schedule: Q01DX009 (ip), vehicle: saline) 96 % of control; (dose: 10.0 mg/kg/injection, schedule: Q01DX009 (ip), vehicle: saline) 97 % of control; (dose: 20.0 mg/kg/injection, schedule: Q01DX009 (ip), vehicle: saline) 88 % of control.
`CCOC(=O)C(=O)Nc1ccc(Cl)cc1`: the T/C under setting [15] was 94 % of control, the T/C under setting [16] is 97 % of control and the T/C under setting [17] is 95 % of control.
For the compound `CCn1c(=O)c2nc(Br)n(C3OCC(OC(C)=O)C(OC(C)=O)C3OC(C)=O)c2n(CC)c1=O` (stereo not given), the T/C runs as follows: under setting [10], 104 % of control; under setting [11], 104 % of control; under setting [12], 100 % of control; under setting [13], 93 % of control; under setting [14], 88 % of control.
On to `NCc1cn(C2OC(CO)C(O)C2O)c2nc[nH]c(=O)c12` (stereo not given), for which the T/C runs as follows: (dose: 25.0 mg/kg/injection, schedule: Q01DX009 (ip), vehicle: distilled water + Tween-80) 103 % of control; (dose: 50.0 mg/kg/injection, schedule: Q01DX009 (ip), vehicle: distilled water + Tween-80) 103 % of control; (dose: 100.0 mg/kg/injection, schedule: Q01DX009 (ip), vehicle: distilled water + Tween-80) 101 % of control; (dose: 200.0 mg/kg/injection, schedule: Q01DX009 (ip), vehicle: distilled water + Tween-80) 98 % of control; (dose: 400.0 mg/kg/injection, schedule: Q01DX009 (ip), vehicle: distilled water + Tween-80) 115 % of control.
Consider `CON=C(/C=C\c1ccccc1)/C=C/c1ccccc1`, for which the T/C by setting is: under setting [15], 102 % of control; under setting [5], 103 % of control; under setting [16], 98 % of control; under setting [6], 101 % of control; under setting [17], 93 % of control; under setting [8], 97 % of control.
As to `CCCCCCCCCCCCCCCCCCCCC1CCCCC1`, the T/C runs as follows: under setting [15], 91 % of control; under setting [16], 98 % of control; under setting [17], 92 % of control.
For `Nc1nc(N)c2[nH]cnc2n1`, the T/C is, setting by setting: (dose: 12.5 mg/kg/injection, schedule: Q01DX005 (ip), vehicle: Klucel (hydroxypropylcellulose) (HPC)) 101 % of control; (dose: 25.0 mg/kg/injection, schedule: Q01DX005 (ip), vehicle: Klucel (hydroxypropylcellulose) (HPC)) 101 % of control; (dose: 50.0 mg/kg/injection, schedule: Q01DX005 (ip), vehicle: Klucel (hydroxypropylcellulose) (HPC)) 106 % of control; (dose: 50.0 mg/kg/injection, schedule: Q04DX003 (ip), vehicle: saline with Tween-80) 95 % of control; (dose: 100.0 mg/kg/injection, schedule: Q01DX005 (ip), vehicle: Klucel (hydroxypropylcellulose) (HPC)) 110 % of control; under setting [1], 95 % of control. Further, the T/C under setting [2] is 97 % of control and the T/C under setting [3] is 97 % of control.
On to `COC1=C2CCCC2=[N+]2CCCCC2C1` (stereo not given), for which the T/C under setting [7] was 96 % of control and the T/C (dose: 200.0 mg/kg/injection, schedule: Q04DX003 (ip), vehicle: saline) was 96 % of control.
